Experiment [1] relates to Candida dubliniensis. In words: Antifungal activity against Candida dubliniensis ATCC 778157 by broth microdilution method. A general note: Dilution methods test growth across graded concentrations, often in twofold steps.
The subject of experiment [2] is Candida dubliniensis. In words: Antifungal activity against Candida dubliniensis ATCC 777 by broth microdilution method.

Each structure is given as a SMILES string. A value given as a limit tells only on which side of the number the result lay.

For the molecule `COc1ccc2c(c1)C(=O)c1cc(C)ccc1C2=O`, the MIC against Candida dubliniensis [1] and in the experiment with Candida dubliniensis [2] was greater than 100 µg/mL throughout.
`Cc1ccc2c(c1)C(=O)c1cc(O)ccc1C2=O`: the MIC with Candida dubliniensis [1] and with Candida dubliniensis [2] was greater than 100 µg/mL throughout.
Regarding `Cc1ccc2c(c1)C(=O)c1ccccc1C2=O` [TECTOQUINONE], the MIC with Candida dubliniensis [1] and against Candida dubliniensis [2] was greater than 100 µg/mL in each case.

As usually defined, the MIC is the least concentration at which growth counts as inhibited. A lower MIC goes with inhibition by little substance.
